Consider 19 compounds from ChEMBL document CHEMBL4118172, “Design and synthesis of 2,6-disubstituted-8-amino imidazo[1,2a]pyridines, a promising privileged structure” (Bioorg Med Chem, 2018).

A short description of series [1]: Cytotoxicity against human SH-SY5Y cells after 24 to 72 hrs by MTT assay. The class given is cell-based. In general terms: Tetrazolium assays rely on reduction of a dye to a coloured formazan, in cell work by metabolically active cells.
A further series concerns the target Adenosine receptor A2a (Homo sapiens, UniProt P29274). Description: Displacement of [3H]-ZM-241385 from human adenosine A2A receptor expressed in HEK293 cell membranes after 1 hr by scintillation counting analysis. (Displacement assays read how much labelled ligand stays bound in the presence of the test substance.)

Sequence of Adenosine receptor A2a (P29274 whole entry): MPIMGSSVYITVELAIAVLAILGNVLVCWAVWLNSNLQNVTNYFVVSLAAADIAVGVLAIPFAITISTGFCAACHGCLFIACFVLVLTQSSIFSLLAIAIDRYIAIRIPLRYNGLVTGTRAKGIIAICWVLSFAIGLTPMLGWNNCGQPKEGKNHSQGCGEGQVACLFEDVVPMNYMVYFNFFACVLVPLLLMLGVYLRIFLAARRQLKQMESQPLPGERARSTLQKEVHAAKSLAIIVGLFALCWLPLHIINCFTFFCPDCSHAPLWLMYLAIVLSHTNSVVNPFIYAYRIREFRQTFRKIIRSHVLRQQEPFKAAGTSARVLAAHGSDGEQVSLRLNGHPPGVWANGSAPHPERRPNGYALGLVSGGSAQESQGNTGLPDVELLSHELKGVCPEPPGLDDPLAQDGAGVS

Usually CC50 stands for the concentration giving 50% cytotoxicity. A lower CC50 goes with greater toxicity to the cells. In general, Ki refers to the dissociation constant of the complex between target and ligand, obtained from inhibition or displacement. Read a high Ki as a looser hold on the target. Compound `Nc1cccn2cc(-c3ccco3)nc12` had a CC50 in series [1] of over 100 µM. In addition, the Ki at Adenosine receptor A2a was over 10 µM.

`COc1ccc(-c2cn3cc(C(=O)NCCCN4CCCCC4)cc(N)c3n2)cc1OC` displayed a CC50 in series [1] of 49.6 µM. Further, the Ki on Adenosine receptor A2a is over 10 µM.

Turning to `COCCOc1ccc(N2CCN(CCNC(=O)c3cc(N)c4nc(-c5ccc(OC)c(OC)c5)cn4c3)CC2)cc1`, half-maximal cytotoxicity in series [1] (CC50) was put at 31.8 µM. The compound also came in with a Ki at Adenosine receptor A2a of over 10 µM.

On to `COc1ccc(-c2cn3cc(CCc4ccccc4)cc(N)c3n2)cc1OC`, for which the CC50 in series [1] was found to be 50.4 µM. The same compound yielded a Ki on Adenosine receptor A2a of over 10 µM.

On to `COc1ccc(-c2cn3cc(C#Cc4ccccc4)cc(N)c3n2)cc1OC`, for which the CC50 in series [1] was 66.7 µM. Also, the Ki on Adenosine receptor A2a is over 10 µM.

For the compound `Nc1cc(-c2ccccc2)cn2cc(-c3ccco3)nc12`, the CC50 in series [1] worked out at 0.5 µM. For the same compound, the Ki at Adenosine receptor A2a is over 10 µM.

Take `c1ccc(-c2cn3cc(-c4ccco4)ccc3n2)cc1`: the CC50 in series [1] was over 100 µM. The compound also returned a Ki at Adenosine receptor A2a of over 10 µM.

On to `COc1ccc(-c2cn3cc(C(=O)NCCCN4CCN(C)CC4)cc(N)c3n2)cc1OC`, for which, in series [1], the CC50 was over 100 µM. Besides, the Ki on Adenosine receptor A2a was over 10 µM.

Turning to `COc1ccc(-c2cn3cc(C(=O)NCCc4ccc(O)cc4)cc(N)c3n2)cc1OC`, in series [1], the CC50 stood at 26.9 µM. This compound gave a Ki at Adenosine receptor A2a of over 10 µM.

Regarding `COCCOc1ccc(N2CCN(C(=O)c3cc(N)c4nc(-c5ccc(OC)c(OC)c5)cn4c3)CC2)cc1`, in series [1], the CC50 was over 100 µM. On Adenosine receptor A2a, this compound yielded a Ki of over 10 µM.

Compound `c1coc(-c2cn3ccccc3n2)c1` registered a CC50 in series [1] of over 100 µM. The same compound returned a Ki at Adenosine receptor A2a of over 10 µM.

`Nc1cc(-c2ccco2)cn2cc(-c3ccco3)nc12` returned a CC50 in series [1] of 2.27 µM. The Ki on Adenosine receptor A2a is over 10 µM.

Compound `Nc1cc(-c2ccco2)cn2cc(-c3ccccc3)nc12` gave a CC50 in series [1] of 26 µM. For the same compound, the Ki on Adenosine receptor A2a came to 0.418 µM.

As for `c1ccc(-c2ccc3nc(-c4ccco4)cn3c2)cc1`, half-maximal cytotoxicity in series [1] (CC50) was put at 0.42 µM. The compound also returned a Ki at Adenosine receptor A2a of over 10 µM.

Take `COc1ccc(-c2cn3cc(C(=O)NCCCN4CCNCC4)cc(N)c3n2)cc1OC`: the CC50 in series [1] was over 100 µM. The Ki on Adenosine receptor A2a was over 10 µM.

Regarding `COc1ccc(-c2cn3cc(C(=O)NCCCN4CCOCC4)cc(N)c3n2)cc1OC`, the CC50 in series [1] is over 100 µM. The Ki at Adenosine receptor A2a is over 10 µM.

Turning to `COc1ccc(-c2cn3cc(-c4ccco4)cc(N)c3n2)cc1OC`, it took 36.4 µM to reach half-maximal cytotoxicity in series [1] (CC50). The compound also showed a Ki on Adenosine receptor A2a of 0.117 µM.

In series [1], `COc1ccc(-c2cn3cc(-c4ccco4)ccc3n2)cc1OC` yielded a CC50 of 30 µM. The Ki at Adenosine receptor A2a was found to be 0.238 µM.

Regarding `c1coc(-c2ccc3nc(-c4ccco4)cn3c2)c1`, in series [1], it took 3 µM to reach half-maximal cytotoxicity (CC50). The same compound returned a Ki on Adenosine receptor A2a of 1.63 µM.
